Experimental data from patent US6270780A, “Cosmetic compositions containing resveratrol” (Chesebrough-Pond's USA Co., division of Conopco, priority 1998, dated 2001).
Read-outs that look alike come from different tables or passages of the source.

Tests used:
[1] = system: Transglutaminase (TG-1); assay: ELISA based TG-1 assay, differentiation of keratinocytes; type: cell-based, human
Source text: Methodology for Transglutaminase Measurement
During the process of terminal differentiation in the epidermis, a 15 nm thick layer of protein, known as the cornified envelope (CE) is formed on the inner surface of the cell periphery. The CE is composed of numerous distinct proteins which have been cross-linked together by the formation of N-((-glutamyl) lysine isodipeptide bonds catalyzed by the action of at least two different transglutaminases expressed in the epidermis. Transglutaminase (TG-1) is expressed in abundance in the differentiated layers of the epidermis, especially the granular layer, but is absent in the undifferentiated basal epidermis. Thus, TG-1 is a useful marker of epidermal keratinocyte differentiation with high TG-1 levels indicating a more differentiated state. An ELISA based TG-1 assay, using a TG-1 antibody, was used to assess the state of differentiation of the cultured keratinocytes in the examples that follow.
The level of TG-1 was measured as follows. Keratinocytes were obtained as described in Example 2. For the experiment, about 30,000 cells were plated into each well of 6 well plates and grown for five days, until the cells reach about 20-30% confluence. 2 ml/well of fresh KGM were added daily with 2 μl of 2-50 mM resveratrol in DMSO for 3 days. Control wells also received 2 μl of DMSO. After 3 days of treatment, cells were washed twice with PBS and placed in freezer for 2 hours. Cells were then thawed for 2 hours. DNA content of the cells were quantitated by using the DNA binding flurophore, bis-benzimidazole (Hoechst 33258) and measuring the specific fluorescence of the DNA-bound flurophore at 450 nm (excitation at 360 nm).
TG-1 levels of the cells in the wells were determined using the TG-1 specific monoclonal antibody (BC1) (first antibody) (obtained from Amersham Life Sciences) and using a peroxidase labeled rabbit antimouse IgG fragment (second antibody). The plates were blocked by 5% nonfat milk in TBS (Tris buffered saline, 0.01 M Tris, 0.150 M sodium chloride, pH 8.0) for one hour followed by 2 hour incubation with the first antibody (1:4,000 fold dilution) in 1% milk/TBS at room temperature. After rinsing the plates three times with 1% milk/TBS containing 0.05% Tween 20, the plates were incubated with 1:4000 dilution of the second antibody at room temperature for two hours. The plates were rinsed three times with 1% milk/TBS/Tween and three times with TBS. Color was developed by incubation with o-phenylene diamine and hydrogen peroxide. The absorbance was read at 492 nm on a Ultrospec 3000 spectrophotometer (Pharmacia Biotech) and TG-1 levels were calculated as Abs/DNA fluorescence. The mean±standard deviation of at least 3 separate wells were used for calculation and statistical analysis of the data. Values were expressed as absorbance for TG-1 per arbitrary unit of DNA fluorescence of triplicate wells±standard deviation. Results were also expressed as % of control.

[2] = system: ZR75 cells; assay: 3H-thymidine incorporation (DNA synthesis) / proliferation of ZR75 cells, estrogen-like activity; type: cell-based, human
Source text: The following test was employed to determine whether resveratrol has an estrogen-like activity:
The ZR75 cell line is a ductal breast carcinoma cell line, originally isolated from malignant mammary epithelium of a person (Engel et al., Human breast carcinoma cells in continuous culture: A review., Cancer Res., 38: 4327-4339, 1978). This cell line contains receptors for estrogen, progesterone and other steroid hormones, but responds through an increase in proliferation only to estrogen. The cell line contains high affinity estrogen-specific receptors. Therefore, this cell line is used for testing estrogen-like activity (Markiewicz et al., In vitro bioassays of non-steroidal phytoestrogens, J. Steroid Biochem. Molec. Biol., 45: 399-405, 1993)
Methodology Used for Determining the Rate of DNA Synthesis in Cells
The incorporation of ^3 H-thymidine by cultured cells was used as an assay of cell proliferation (both for ZR75 cells and for keratinocytes). Thymidine is one of four deoxynucleosides which are the monomeric units of DNA. Prior to cell division of a somatic cell, the complete genome of the cell undergoing cell division is replicated. This involves large scale DNA synthesis by the cell and enables both daughter cells to receive identical copies of the genetic material. When ^3 H-thymidine is included in the culture media of cells which are synthesizing DNA in preparation for cell division then the labeled thymidine is incorporated into the newly synthesized DNA. The extent of incorporation of ^3 H-thymidine into a population of cells is proportional to the rate of DNA synthesis by this population of cells and therefore an indication of their cellular proliferation.
ZR75 cells (from American Type Culture Collection, Rockville, Md.) were grown in RPMI1640 media (from Gibco Life Technologies) with 10% fetal bovine serum (FBS) , 100 units penicillin per ml and 100 units of streptomycin per ml. All incubations were performed at 37° C. in 5% CO2. […] The cells were seeded at a density of one million per 75 cm2 flask. For the experiment, the cells were seeded in 24 well plates at 100,000 cells per ml per well.
After growing for 24 hours, the media was removed, the cells were washed with PBS (phosphate buffered saline, 0.01 M sodium phosphate, 0.138 M sodium chloride, 0.0027 M potassium chloride, pH 7.4) and 1 ml of RPMI 1640 without serum (but with streptomycin and penicillin) was added. Stock solutions of resveratrol in dimethyl sulfoxide (DMSO) and estradiol in water were prepared. […] After another 24 hours, one μCi of [methyl-3H] thymidine was added to each well. The media was removed after 24 hours. The cells were washed once in PBS, the PBS was removed completely and the cells were left on ice to incubate with 1 ml per well of 10% TCA (trichloroacetic acid) for 30 minutes. The plates were washed 3 times with 5% TCA to remove all traces of thymidine which wasn't incorporated into the cells. 500 μl of 0.1M sodium hydroxide was added to each well and the plates were incubated at room temperature for at least 30 minutes. 250 μl of each sample was transferred to scintillation vials and after adding 5 mL of counting fluid, the vials were counted for 5 minutes each on a setting for tritium. […] Values were expressed as mean of quadruplicate wells +/- standard deviation.

[3] = Homo sapiens, ZR75, read-out: DNA synthesis (% of Control), EXPT 1, control DMSO
[4] = Homo sapiens, ZR75, read-out: DNA synthesis (% of Control), EXPT 2, control DMSO

`Oc1ccc(/C=C/c2cc(O)cc(O)c2)cc1` [Resveratrol, 3,4'5-stilbenetriol] was tested, and the “transglutaminase expression of keratinocytes vs control” value ([1]; Experiment 1, 10 μM) was “not significantly different from control”, the “TG-1 levels/μg DNA” value ([1]; Experiment 1, 10 μM, 3 days) was 8.49 ± 1.77 /μg DNA and the “TG-1 levels/μg DNA” value ([1]; Experiment 1, 25 μM, 3 days) was 10.92 ± 2.29 /μg DNA. For the same molecule, the “TG-1 levels/μg DNA” value ([1]; Experiment 1, 50 μM, 3 days) was 22.2 ± 1.50 /μg DNA, the “TG-1 levels/μg DNA” value ([1]; Experiment 2, 2 μM, 3 days) was 3.42 ± 0.42 /μg DNA and the “TG-1 levels/μg DNA” value ([1]; Experiment 2, 5 μM, 3 days) was 3.51 ± 0.41 /μg DNA. The “TG-1 levels/μg DNA” value ([1]; Experiment 2, 10 μM, 3 days) was 3.61 ± 0.17 /μg DNA, the “TG-1 levels/μg DNA” value ([1]; Experiment 2, 25 μM, 3 days) was 4.69 ± 0.21 /μg DNA and the “TG-1 levels/μg DNA” value ([1]; Experiment 2, 50 μM, 3 days) was 4.65 ± 0.46 /μg DNA. The keratinocyte differentiation ([1]; Experiment 2, all concentrations of 2 μM and higher) was “significantly increased keratinocyte differentiation”, the activity at 10 µM ([1]; Homo sapiens, Keratinocyte, 72 h, Experiment 1, 10 μM, 3 days, read-out: TG-1 levels, % of control) was 126% and the activity at 25 µM ([1]; Homo sapiens, Keratinocyte, 72 h, Experiment 1, 25 μM, 3 days, read-out: TG-1 levels, % of control) was 162%. It also gave an activity at 50 µM ([1]; Homo sapiens, Keratinocyte, 72 h, Experiment 1, 50 μM, 3 days, read-out: TG-1 levels, % of control) of 329%, an activity at 2 µM ([1]; Homo sapiens, Keratinocyte, 72 h, Experiment 2, 2 μM, 3 days, read-out: TG-1 levels, % of control) of 179% and an activity at 5 µM ([1]; Homo sapiens, Keratinocyte, 72 h, Experiment 2, 5 μM, 3 days, read-out: TG-1 levels, % of control) of 184%. The activity at 10 µM ([1]; Homo sapiens, Keratinocyte, 72 h, Experiment 2, 10 μM, 3 days, read-out: TG-1 levels, % of control) was 189%, the activity at 25 µM ([1]; Homo sapiens, Keratinocyte, 72 h, Experiment 2, 25 μM, 3 days, read-out: TG-1 levels, % of control) was 246% and the activity at 50 µM ([1]; Homo sapiens, Keratinocyte, 72 h, Experiment 2, 50 μM, 3 days, read-out: TG-1 levels, % of control) was 243%. The “transglutaminase expression of keratinocytes” value ([1]; all other concentrations) was “significantly increased transglutaminase expression of keratinocytes”, the activity at 0.5 µM [2, 3] was 69.7 ± 10% and the activity at 1 µM [2, 3] was 58.8 ± 9%. For the same molecule, the activity at 10 µM [2, 3] was 208 ± 32.5%, the activity at 20 µM [2, 3] was 135 ± 21.4% and the activity at 40 µM ([2]; Homo sapiens, ZR75, read-out: DNA synthesis (% of Control), EXPT 1, 40 μM, control DMSO) was 60.8 ± 26.4%. For the same molecule, the activity at 50 µM ([2]; Homo sapiens, ZR75, read-out: DNA synthesis (% of Control), EXPT 1, 50 μM, control DMSO) was 4.1 ± 1.4%, the activity at 0.5 µM [2, 4] was 56.8 ± 4.2% and the activity at 1 µM [2, 4] was 60.5 ± 3.6%. For the same molecule, the activity at 5 µM ([2]; Homo sapiens, ZR75, read-out: DNA synthesis (% of Control), EXPT 2, 5 μM, control DMSO) was 159 ± 4.1%, the activity at 10 µM [2, 4] was 163 ± 13.7% and the activity at 15 µM ([2]; Homo sapiens, ZR75, read-out: DNA synthesis (% of Control), EXPT 2, 15 μM, control DMSO) was 119 ± 2.5%. For the same molecule, the activity at 20 µM [2, 4] was 68 ± 3.9% and the “proliferation of ZR 75 cells” value ([2]; concentration from 5 to 20 μM) was “increased proliferation of ZR 75 cells”.
